These results are taken from patent US9821004B2, “Inhibition of a lncRNA for treatment of melanoma” (VIB VZW, priority 2013, dated 2017).

Each structure is given as a SMILES string.

Assay [1] deals with BRAFV600E-positive melanomas. The following applies: patients with BRAFV600E-positive melanomas; cited from earlier work.
Assay [2] concerns BRAFV600E human melanoma cell line. The assay is described as follows: Apoptosis (Annexin-5-positive cells by FACS) after gapmer transfection plus BRAFV600E-inhibitor. It is filed as cell-based. The following applies: gapmer 3 transfection; 24 hours after exposure to the BRAFV600E-inhibitor, 48 hours after transfection, FIG. 16. The protocol: Apoptosis was measured by quantification of Annexin-5-positive cells by FACS 24 hours after exposure to the BRAFV600E-inhibitor (and 48 hours after transfection). Representative pictures of the cells are shown.
Importantly, knock-down of LINC01212 sensitizes BRAFV600E-melanoma cells to a BRAF-inhibitor currently used in the clinic, […] (FIG. 16).
(In general: In flow cytometry, cells or beads pass a laser one at a time.)

Turning to `CCCS(=O)(=O)Nc1ccc(F)c(C(=O)c2c[nH]c3ncc(-c4ccc(Cl)cc4)cc23)c1F` [PLX4032], the anti-tumor response rate in assay [1] was 80%. In addition, the “sensitization of BRAFV600E-melanoma cells to BRAF-inhibitor by LINC01212 knock-down (apoptosis)” value in assay [2] is recorded as “sensitizes”.
